{
  "source": "patent US6569633B1",
  "about": "“Modulation of the sulfonylurea receptor and calcium in adipocytes for treatment of obesity/diabetes” (Artecel Science, Inc., priority 1998, dated 2003)",
  "key": {"human preadipocytes": {"test_system": "human preadipocytes", "experiment": "Intracellular Ca2+ ([Ca2+]i) response in human preadipocytes", "format": "cell-based"}, "[1]": {"test_system": "GPDH activity in human adipocytes", "experiment": "GPDH activity in human adipocytes", "format": "cell-based", "method": "FIG. 3. The lipogenic effect of glibenclamide in human adipocytes. As an indicator of lipogenic stimulation, both FAS and GPDH activity were measured. A. Glibenclamide stimulation of FAS activity. Human adipocytes were treated with 10 μM glibenclamide alone, 10 μM glibenclamide plus 10 μM diazoxide or 10 μM glibenclamide plus 30 μM nitrendipine for 48 hr. FAS was measured as described (6, 14). *p<0.001 vs. Control. B. Glibenclamide stimulation of GPDH activity. Human adipocytes were treated with 10 μM glibenclamide or 10 μM glibenclamide plus 10 μM diazoxide for 48 hr. GPDH activity was measured as described (14). *p<0.01 vs. Control.\nTo study the role of adipocyte SUR1 in regulating lipogenesis, we treated human adipocyte with SUR1 agonist and antagonist using FAS and GPDH activities as lipogenic markers. Human adipocytes were incubated in 24-well plates with the treatments indicated for 48 hr. FAS and GPDH activities were determined spectrophotometrically in crude cytosolic extracts of human adipocytes by measuring the oxidation rate of NADPH or NADH respectively, as previously described (14). The protein correction was measured by a modified Bradford method using Coomassie Blue dye (Pierce, Rockford, Ill.)."}, "rat adipocytes": {"molecular_target": "rat adipocytes", "conditions": "read-out: KD of glibenclamide binding; cited from earlier work"}, "human adipocytes": {"test_system": "human adipocytes", "experiment": "Lipolysis (glycerol release into the culture medium) in human adipocytes", "format": "cell-based", "method": "FIG. 4. The anti-lipolytic effect of glibenclamide in human adipocytes. Activation of lipolysis in adipocytes is typically measured by release of glycerol into the media. Human adipocytes were treated with 10 μM glibenclamide alone, 10 μM glibenclamide plus 10 μM diazoxide or 10 μM glibenclamide plus 30 μM nitrendipine for 48 hr. Glycerol release was determined as described (19). *p<0.01 vs. Control.\nHuman adipocytes were examined for changes in lipolysis regulation by measurement of glycerol release into the media. Glycerol was measured by using a standard method (19), although other techniques for measuring glycerol would be equally useful.\nHuman subcutaneous abdominal adipose tissue was obtained from patients undergoing elective abdominal cosmetic surgery, although other types of adipose tissue, such as mesenteric, retroperitoneal, perirenal, or omental may be useful in identifying these compounds. Preadipocytes are isolated by collagenase treatment of the tissue and cultured adipocytes prepared as described (patent filed; Jan. 29, 1999; Ser. No. 09/240,029). Agents that regulate calcium flux in adipocytes as noted above can mediate lipolysis. Human adipocytes may be cultured in multi-well plates with different treatments between 1 hour or 24 hours as indicated, and glycerol release into the culture medium was determined as an indicator for lipolysis using a one-step enzymatic fluorometric method. The media collected from 1 hr treatments were used directly for glycerol measurements. For 24 hr treatments, media were removed, and cells were washed with Hank's Balanced Salt Solution and incubated in fresh medium for a further 10-60 min. This media were then used for glycerol measurements for 24 hr treatments.\nWe next investigated the role of adipocyte SUR1 on lipolysis. Lipolysis was measured as follows. Human adipocytes were treated as described below and glycerol release into the culture medium was determined as an indicator for lipolysis using a one step enzymatic fluorometric method (19). After treatment medium was obtained, HClO4 was added for deproteinization.\nAgents that regulate calcium flux in adipocytes as noted above can mediate lipolysis. Human adipocytes (1 mL cells/well) were incubated in 24-well plates with different treatments for either 1 hour or 24 hours as indicated, and glycerol release into the culture medium was determined as an indicator for lipolysis using a one-step enzymatic fluorometric method. The media collected from 1 hr treatments were used directly for glycerol measurements. For 24 hr treatments, media were removed, and cells were washed with Hank's Balanced Salt Solution and incubated in fresh medium for a further 30 min. This media were then used for glycerol measurements for 24 hr treatments. After medium was collected, HClO4 was added to give a final concentration of 3% for deproteinization. The sample was centrifuged at 9000×g for 20 min. The supernatant was then collected and neutralized with 10N NaOH. Samples were stored at −80° C. prior to glycerol assay. Cells were collected, homogenized and stored at −80° C. for subsequent total protein correction by a modified Bradford method using Coomassie Blue dye (PIERCE, Rockford, Ill.)."}, "[2]": {"conditions": "SUR agonists such as glibenclamide, general description"}},
  "data": [
    {"compound": "COc1ccc(Cl)cc1C(=O)NCCc1ccc(S(=O)(=O)NC(=O)NC2CCCCC2)cc1", "note": "[glibenclamide]", "values": [
      {"measurement": "[Ca2+]i response", "setting": "human preadipocytes", "result": "did not exhibit any [Ca^2+]i response"},
      {"measurement": "increase in GPDH activity", "setting": "[1]; 10 μM glibenclamide, 48 hr", "result": 48, "unit": "%"},
      {"measurement": "GPDH activity", "setting": "[1]; 10 μM glibenclamide, 48 hr, control 554.0±33.0", "result": "821.0±73.4", "unit": "NADH nM/min/mg protein"},
      {"measurement": "increased GPDH activity", "setting": "[1]; [2]", "result": "50-100%"},
      {"measurement": "Kd", "setting": "rat adipocytes", "result": "1000 to 3000", "unit": "nM"},
      {"measurement": "lipolysis (glycerol release)", "setting": "human adipocytes; 10 μM glibenclamide, 48 hr, control 0.193±0.050", "result": "0.061±0.009", "unit": "NADH μM/mg protein"},
      {"measurement": "inhibition at 10 µM", "setting": "human adipocytes; Homo sapiens, Adipocyte, 10 μM glibenclamide, 48 hr", "result": 68, "unit": "%"},
      {"measurement": "inhibition in lipolysis", "setting": "human adipocytes; [2]", "result": "25-70%"}
    ]}
  ]
}
